This note sets out measurements from ChEMBL document CHEMBL3853302, “Anti-inflammatory and Quinone Reductase Inducing Compounds from Fermented Noni (Morinda citrifolia) Juice Exudates” (J Nat Prod, 2016).

Structures are written as SMILES. Calls of active or inactive are those of the source. The calls are words filed in the database; no cut-off is given here.

Data set [1] in a line: Induction of quinone reductase-1 in mouse Hepa-1c1c7 cells assessed as reduction of 3-(4,5-dimethylthiazol-2-yl)-2,5-diphenyltetrazolium bromide at 50 uM after 48 hrs by crystal violet staining-based assay relative to control.
Data set [2] in a line: Toxicity in HEK293 cells assessed as decrease in cell survival at 50 uM. Particulars: human, hek293, 50 µM. The data set is classed as cell-based.
In a further data set the test system is HEK293. As to the kind of experiment: Inhibition of TNF-alpha-activated NFkappaB (unknown origin) expressed in HEK293 cells at 50 uM after 6 hrs by luciferase reporter gene assay relative to control. The following applies: Homo sapiens. The data set is classed as cell-based. (In a reporter assay the amount or activity of a reporter protein is the signal.)

Data set [3] is described as follows: Inhibition of TNF-alpha-activated NFkappaB (unknown origin) transfected in HEK293 cells after 6 hrs by luciferase reporter gene assay. It is filed as cell-based. Particulars: Homo sapiens, HEK293, 6 h.

As for `COC(=O)C1=CO[C@@H](O[C@@H]2O[C@H](CO)[C@@H](O)[C@H](O)[C@H]2O)[C@@H]2C(CO)=C[C@@H](O)[C@H]12`, the fold change (FC) in data set [1] amounted to 2.5. With `COc1cc2oc(=O)ccc2cc1O[C@@H]1O[C@H](CO)[C@@H](O)[C@H](O)[C@H]1O`, the outcome in data set [1] was Active. On to `CCCCO[C@H]1C=C(CO)[C@H]2[C@H](O[C@@H]3O[C@H](CO)[C@@H](O)[C@H](O)[C@H]3O)OC=C(C(=O)O)[C@H]21`, for which the fold change (FC) in data set [1] came to 2.3. For orientation: inhibition means the share of the control response that was lost under treatment. Read a high inhibition as a response far below the control. As to `C[C@@H]1O[C@@H](OC[C@H]2O[C@@H](Oc3c(-c4ccc(O)cc4)oc4cc(O)cc(O)c4c3=O)[C@H](O)[C@@H](O)[C@@H]2O)[C@H](O)[C@H](O)[C@H]1O` [NICOTIFLOROSIDE], in data set [2], the Activity entry is “Non-Toxic”. In the data set on HEK293, this compound yielded an inhibition of 62%. For the compound `O=C1O[C@@H]2[C@@H](O)CO[C@]2(O)[C@@]1(O)C/C=C/c1ccc(O)c(O)c1`, the Activity entry in data set [2] is on record as “Non-Toxic”. The same compound displayed an inhibition in the data set with HEK293 of 70%. As a reminder, the IC50 is the midpoint of a concentration-inhibition curve. `Cc1ccc(S(=O)(=O)N[C@@H](Cc2ccccc2)C(=O)CCl)cc1` [TPCK] gave an IC50 in data set [3] of 3.8 µM.
